Data: publication PMC6848974 (Science translational medicine, 2019)
Entries after “also recorded” stand apart in the source; their conditions may differ.

Columns and labels:
[1] = tested on: A/California/07/2009 (H1N1); set-up: species or system ferrets; conditions: in vivo
[2] = Plasma PK in cynomolgus macaques; format: in vivo; conditions: non-human primates
PK and PD = format: in vivo; conditions: ferrets
[3] = tested on: A/Wisconsin/67/2005 (H3N2); set-up: species or system ferrets; conditions: in vivo
[4] = tested on: ferret lung nuclear (TNFα) and mitochondrial (COX15) mRNAs; conditions: in vivo, po, 100 mg/kg
[5] = PK of NHC and EIDD-2801 in mice
[6] = tested on: Ca/09, Wi/05, and B/Brisbane/60/2008; test: microbe, parasite or virus in culture; format: cell-based, human airway epithelia
Ca/09 = test: cells; format: cell-based, human airway epithelia
[7] = tested on: well-differentiated human airway epithelia
[8] = tested on: HBTECs mitochondrial (COX1) and nuclear (SDH-A) protein expression
in vitro = conditions: human
[9] = tested on: HBTEC nuclear (SDH-A) and mitochondrial (COX1) mRNAs; test: Transitions in host mRNA of HBTECs; conditions: 72 hours

CCOC(=O)C1=C[C@@H](OC(CC)CC)[C@H](NC(C)=O)[C@@H](N)C1 [oseltamivir, oseltamivir-phosphate, reference compound]
bronchiolar inflammation in lung sections versus EIDD-2801 therapeutic groups [1]: more pronounced
inhibitory effect on shed virus titer [1]: no significant (P ≥0.13) inhibitory effect

CC(C)C(=O)OC[C@H]1O[C@@H](n2ccc(NO)nc2=O)[C@H](O)[C@@H]1O [EIDD-2801]
oral bioavailability compared to NHC [2]: increased oral bioavailability
oral bioavailability compared to NHC (PK and PD; oral): increased oral bioavailability
tolerability (phenotypically appreciable adverse effects) (PK and PD; seven b.i.d. oral doses at 100 mg/kg): well tolerated
drug accumulation on repeat dosing (PK and PD; single versus multi-dose oral b.i.d.): does not lead to drug accumulation
cellular infiltrates in nasal cavities and blood lymphocyte counts [1]: remained unchanged
duration of fever [1]: shortened; also recorded: significantly (P <0.0001 and P = 0.03, respectively) reduced
reduction of shed viral titers [1]: ≥ 4 orders of magnitude
reduction of tissue (nasal turbinate) viral titers [1]: more than 4 orders of magnitude
relative cytokine and CXCL10 induction [1]: significantly lowered
shed virus load [1]: dropped by several orders of magnitude; also recorded: significantly (P <0.0001 and P = 0.03, respectively) reduced
shed virus load in nasal lavages [1]: at or below limit of detection
time at which fever started to decline [1]: approximately 1.5 days after infection
viral titers in bronchioalveolar lavages and lung tissue [1]: significantly reduced
virus burden in nasal turbinates and tracheas [1]: reduction of several orders of magnitude
virus in lung sections by immunohistochemistry [1]: immunohistochemically undetectable
reduction of shed viral titers [3]: ≥ 4 orders of magnitude
shed virus load in nasal lavages [3]: at or below limit of detection
tissue (nasal turbinate) viral titers [3]: undetectable
transition frequencies in nuclear and mitochondrial message versus vehicle [4]: indistinguishable
hydrolysis in vivo after absorption (only free NHC detected in plasma) [5]: efficiently hydrolyzed

O=c1nc(NO)ccn1[C@@H]1O[C@H](CO)[C@@H](O)[C@H]1O [NHC, N^4-hydroxycytidine]
EC50 in human epithelia lower than in immortalized cell lines [6]: 25-50 fold
EC99 [6]: 0.15 to 0.25 µM
antiviral effect in infected differentiated epithelia [6]: sterilizing
robust efficacy threshold [6]: approximately 0.2 μM
EC50 ([6]; Influenza A virus, in Homo sapiens, 72 h): 60 to 80 nM
apically released virus load (Ca/09): significantly reduced
cytotoxicity threshold [7]: ~50 µM
impact on mitochondrial versus nuclear protein expression [8]: significantly greater
CC50 (in vitro): 137000 nM
off-target effects (transition mutations in host mRNAs) ([9]; 1.8 μM NHC): no off-target effects
transition mutations in host mRNAs ([9]; higher NHC concentrations (50 μM, 10 μM)): increased C to U and U to C transitions

CCC(CC)O[C@@H]1C=C(C(=O)O)C[C@H](N)[C@H]1NC(C)=O [oseltamivir carboxylate, reference compound]
EC50 (Ca/09; Homo sapiens, 72 h): 190 nM
